Measured values as given in article PMC10224994, “Dual synergistic inhibition of COX and LOX by potential chemicals from Indian daily spices investigated through detailed computational studies” (Scientific Reports, 2023).
Where two headings read alike, the source gives them in different places.

Assays:
Type in all cases: biochemical
COX-1 (ovine) = biological target: T1, COX-1 (ovine) (Ovis aries, UniProt P05979); test: In vitro COX-1 inhibition assay (EIA kit)
T1 construct: purchased Cayman Chemical
T1 sequence (P05979 25-600): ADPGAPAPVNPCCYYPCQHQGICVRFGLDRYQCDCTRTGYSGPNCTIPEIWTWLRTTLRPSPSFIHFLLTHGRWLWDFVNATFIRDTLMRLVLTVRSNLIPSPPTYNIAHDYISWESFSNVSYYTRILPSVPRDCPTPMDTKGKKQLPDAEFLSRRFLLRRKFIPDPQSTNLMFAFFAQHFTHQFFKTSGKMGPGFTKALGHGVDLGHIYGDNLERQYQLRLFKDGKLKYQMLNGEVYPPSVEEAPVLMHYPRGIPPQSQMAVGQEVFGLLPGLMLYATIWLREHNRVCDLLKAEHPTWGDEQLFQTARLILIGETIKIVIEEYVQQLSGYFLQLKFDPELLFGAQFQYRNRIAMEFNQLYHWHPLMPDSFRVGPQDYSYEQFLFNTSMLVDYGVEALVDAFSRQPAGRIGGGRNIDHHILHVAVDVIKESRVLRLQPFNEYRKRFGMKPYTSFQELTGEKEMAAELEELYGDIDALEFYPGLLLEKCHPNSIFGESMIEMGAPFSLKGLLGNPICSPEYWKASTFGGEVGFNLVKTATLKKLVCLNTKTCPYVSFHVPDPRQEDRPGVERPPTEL
Protocol: (§1) The inhibitory activity was measured and reported as IC50 value (µM). Data are expressed as IC50 ± SEM for triplicate studies.
(§2) Colorimetric enzyme immunoassay (EIA) was used to assess the inhibitory potential of the test compounds against COX-1, COX-2, and 5-LOX enzymes.

[1] = biological target: T2, COX-2 (human recombinant) (Homo sapiens, UniProt P35354); test: In vitro COX-2 inhibition assay (EIA kit); conditions: mean of three replicates ± SEM
T2 construct: purchased Cayman Chemical
T2 sequence (P35354 18-604): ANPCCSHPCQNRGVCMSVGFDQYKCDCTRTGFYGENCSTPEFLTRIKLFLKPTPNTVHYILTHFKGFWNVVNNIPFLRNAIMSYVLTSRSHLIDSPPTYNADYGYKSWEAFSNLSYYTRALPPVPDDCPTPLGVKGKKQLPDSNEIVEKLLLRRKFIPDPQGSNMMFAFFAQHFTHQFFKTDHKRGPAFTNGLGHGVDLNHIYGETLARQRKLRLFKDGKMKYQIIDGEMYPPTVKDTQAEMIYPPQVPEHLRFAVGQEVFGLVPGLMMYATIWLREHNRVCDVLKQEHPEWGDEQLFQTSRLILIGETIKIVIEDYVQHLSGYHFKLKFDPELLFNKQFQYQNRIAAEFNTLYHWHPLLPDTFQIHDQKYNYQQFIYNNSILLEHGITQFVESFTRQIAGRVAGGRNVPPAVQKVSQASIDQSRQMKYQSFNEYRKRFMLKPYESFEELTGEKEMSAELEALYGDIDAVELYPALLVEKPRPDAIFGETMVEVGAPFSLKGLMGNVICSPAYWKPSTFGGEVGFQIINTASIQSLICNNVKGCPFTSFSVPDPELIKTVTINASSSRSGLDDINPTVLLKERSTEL
Protocol: as §1, §2

5-LOX enzyme = biological target: T3, 5-LOX enzyme (Homo sapiens, UniProt P09917); test: In vitro 5-LOX inhibition assay (Human Lipoxygenase Inhibitor screening kit); conditions: mean of three replicates ± SEM
T3 construct: purchased Cayman Chemical
T3 sequence (P09917 1-674): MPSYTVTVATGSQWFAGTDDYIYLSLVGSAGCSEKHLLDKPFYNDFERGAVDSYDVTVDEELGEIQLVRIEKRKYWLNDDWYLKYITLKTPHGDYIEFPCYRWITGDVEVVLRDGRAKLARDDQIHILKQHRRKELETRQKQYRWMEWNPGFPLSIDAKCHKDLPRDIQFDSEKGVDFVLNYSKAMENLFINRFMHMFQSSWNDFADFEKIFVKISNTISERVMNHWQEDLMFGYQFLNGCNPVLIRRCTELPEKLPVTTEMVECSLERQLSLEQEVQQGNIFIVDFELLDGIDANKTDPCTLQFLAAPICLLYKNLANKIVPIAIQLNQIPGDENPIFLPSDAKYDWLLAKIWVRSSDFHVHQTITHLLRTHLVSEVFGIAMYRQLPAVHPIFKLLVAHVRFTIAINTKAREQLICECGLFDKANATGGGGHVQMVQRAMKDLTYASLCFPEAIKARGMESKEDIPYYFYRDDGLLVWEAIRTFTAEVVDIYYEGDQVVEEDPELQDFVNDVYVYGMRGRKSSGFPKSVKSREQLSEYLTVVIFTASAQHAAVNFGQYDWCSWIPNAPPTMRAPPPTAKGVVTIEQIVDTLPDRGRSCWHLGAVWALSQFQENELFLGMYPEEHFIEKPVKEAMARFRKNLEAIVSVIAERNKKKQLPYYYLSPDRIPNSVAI
Protocol: The ability of the test compounds to inhibit the 5-LOX enzyme was evaluated using the Human Lipoxygenase Inhibitor screening assay (EIA) kit (Cayman Chemical). The IC50 values were measured in µM according to the manufacturer’s instructions and reported method[63]–[65]. Data are expressed as IC50 ± SEM for triplicate studies.
as §2

| IC50 (COX-1 (ovine); mean of three replicates ± SEM, read-out: IC50 data COX-1) | Compound | IC50 (COX-1 (ovine)) | IC50 [1] | IC50 (5-LOX enzyme) |
| --- | --- | --- | --- | --- |
| – | COc1cc(CNC(=O)CCCC/C=C/C(C)C)ccc1O [Capsaicin, (E)-N-(4-hydroxy-3-methoxybenzyl)-8-methylnon-6-enamide] | 24.4 ± 0.62 µM | 28.3 ± 0.55 µM | 36.4 ± 0.39 µM |
| – | COc1cc(/C=C/C(=O)CC(=O)/C=C/c2ccc(O)c(OC)c2)ccc1O [Curcumin, (1E,6E)-1,7-bis(4-hydroxy-3-methoxyphenyl)hepta-1,6-diene-3,5-dione] | 18.6 ± 0.44 µM | – | – |
| 27.1 ± 0.82 µM | CCCCC[C@H](O)CC(=O)CCc1ccc(O)c(OC)c1 [Gingerol, (S)-5-hydroxy-1-(4-hydroxy-3-methoxyphenyl)decan-3-one] | – | 32.82 ± 0.24 µM | 42.65 ± 0.17 µM |
